Reference: US11020457B2, “Compositions and methods for protecting the kidney from ischemia reperfusion injury” (University of Virginia Patent Foundation, priority 2013, dated 2021)
“Also recorded” adds a separate entry of the source.

Experiments:
hepcidin [1] = settings: within 2-5 days after the start of the treatment; cited from earlier work
hepcidin [2] = settings: hepcidin inducers; cited from earlier work
animals models of AKI = settings: cited from earlier work; for renal IRI severity: literature (37-39; 7, 37)
splenocytes from WT mice = experiment: Iron stimulation of splenocytes, IL-6 secretion by ELISA; format: cell-based; settings: iron treatment for 4 hours, vs untreated and hepcidin-treated cells, p<0.005; FIG. 10c
Procedure: Splenocytes were harvested from 10-week-old B6 male mice. After excising the spleen, red blood cells were lysed and the remaining splenocytes were seeded at 1×10^6 cells/mL in 24-well tissue culture plates and cultured under 5% CO2 at 37° C. for 24 hours. The culture medium consisted of RPMI 1640 medium supplemented with 10% fetal calf serum (FCS), 100 U/mL penicillin, 100 μg/mL streptomycin, 1% non-essential amino acids (Gibco/Life Technologies, Foster, Calif., USA), 2 mM L-glutamine (Sigma), and 50/μM 2-mercaptoethanol. After resting for 24 hours, the cells were treated with 10 μM […] (FAC), 1 μg/mL hepcidin or saline for 4 hours. The cell culture supernatants were harvested and quantified for the levels of IL-6 by ELISA (eBioscience).

rat model of AI = settings: AI induced with PG-APS; cited from earlier work

low-molecular-weight heparin
decrease of serum hepcidin concentrations (hepcidin [1]): ~80%

O=C(CCCCCCC(=O)Nc1ccccc1)NO [vorinostat]
active concentration, fold below that required for genistein's effect (hepcidin [2]): 10 fold

superoxide dismutase
renal IRI severity (animals models of AKI): attenuate IRI

ferrous sulfate [reference compound]
IL-6 secretion into supernatants (splenocytes from WT mice): significantly increased splenocytes IL-6 secretion

CC(=O)N(O)CCCCCNC(=O)CCC(=O)N(O)CCCCCNC(=O)CCC(=O)N(O)CCCCCN [desferrioxamine]
protection in animal models of AKI (animals models of AKI; iron chelation): induces protection in diverse animals models of AKI
renal IRI severity (animals models of AKI): attenuate IRI; also recorded: provide protection and significantly improve its severity and outcomes

c1ccc2c(-c3cnn4cc(-c5ccc(N6CCNCC6)cc5)cnc34)ccnc2c1 [LDN-193189]
anemia of inflammation (AI) (rat model of AI): effectively reversed anemia

CC(C)Oc1ccc2c(=O)c(-c3ccccc3)coc2c1 [ipriflavone]
active concentration, fold below that required for genistein's effect (hepcidin [2]): 10 fold
